PubChem BioAssay AID1918993 (Molecular Pharmacology Branch, DTP, NCI, 2023)
Several values for one entry are separate records, joined by “and”; a condition that tells them apart may be missing. Identical values can stand only once.

System: 233499-124-R-J3-PDC complex spheroid growth
Assay: Anticancer human tumor 233499-124-R-J3-PDC patient-derived colon adenocarcinoma cell line growth inhibition [AhR]
Conditions: for viability, T/C: stronger effect = lower value
In short: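 Complex tumor spheroids co-cultured with HUVEC and human MSC stroma; AhR antagonists tested in combination with standard-of-care and investigational agents. Top concentration at or near clinical Cmax (else 10 microM), half-log dilutions; growth expressed as percent test/control.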

[1] = curve of first compound, second compound 0.1 µM
[2] = curve of first compound, second compound 0.316 µM
[3] = curve of first compound, second compound 1 µM
[4] = curve of first compound, second compound 3.16 µM
[5] = curve of first compound, second compound 10 µM
[6] = second compound 0.1 µM, first compound 0.0316 µM
[7] = second compound 0.1 µM, first compound 0.1 µM
[8] = second compound 0.316 µM, first compound 0.0316 µM
[9] = second compound 0.316 µM, first compound 0.1 µM
[10] = second compound 1 µM, first compound 0.0316 µM
[11] = second compound 1 µM, first compound 0.1 µM
[12] = second compound 3.16 µM, first compound 0.0316 µM
[13] = second compound 3.16 µM, first compound 0.1 µM
[14] = second compound 10 µM, first compound 0.0316 µM
[15] = second compound 10 µM, first compound 0.1 µM
[16] = second compound 0.1 µM, first compound 0.316 µM
[17] = second compound 0.1 µM, first compound 1 µM
[18] = second compound 0.1 µM, first compound 3.16 µM
[19] = second compound 0.1 µM, first compound 10 µM
[20] = second compound 0.316 µM, first compound 0.316 µM
[21] = second compound 0.316 µM, first compound 1 µM
[22] = second compound 0.316 µM, first compound 3.16 µM
[23] = second compound 0.316 µM, first compound 10 µM
[24] = second compound 1 µM, first compound 0.316 µM
[25] = second compound 1 µM, first compound 1 µM
[26] = second compound 1 µM, first compound 3.16 µM
[27] = second compound 1 µM, first compound 10 µM
[28] = second compound 3.16 µM, first compound 0.316 µM
[29] = second compound 3.16 µM, first compound 1 µM
[30] = second compound 3.16 µM, first compound 3.16 µM
[31] = second compound 3.16 µM, first compound 10 µM
[32] = second compound 10 µM, first compound 0.316 µM
[33] = second compound 10 µM, first compound 1 µM
[34] = second compound 10 µM, first compound 3.16 µM
[35] = second compound 10 µM, first compound 10 µM
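Note: spheroids exposed to agents for seven days before reading.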

Nc1ccccc1NC(=O)c1ccc(CNC(=O)OCc2cccnc2)cc1
viability, T/C (compound 0.0316 µM): 91.6% and 84.4% and 104% | viability, T/C (compound 0.1 µM): 97.2% and 106% and 99.6% | viability, T/C (compound 0.316 µM): 105% and 112% and 109% | viability, T/C (compound 1 µM): 98% and 113% and 100% | viability, T/C (compound 3.16 µM): 43.9% and 84.1% and 51.4% | viability, T/C (compound 10 µM): 5.82% and 10.2% and 8.69% | IC50 (curve of compound): 2780 nM and 5370 nM and 3280 nM

Cn1ncnc1C1c2n[nH]c(=O)c3cc(F)cc(c23)NC1c1ccc(F)cc1 (stereo unspecified) + Cc1ccccc1N=Nc1ccc(NC(=O)c2ccnn2C)c(C)c1
IC50 [1]: > 100 nM | IC50 [2]: > 100 nM | IC50 [3]: > 100 nM | IC50 [4]: > 100 nM | IC50 [5]: > 100 nM | viability, T/C (second compound 0.1 µM, first compound 0.000316 µM): 104% | viability, T/C (second compound 0.1 µM, first compound 0.001 µM): 107% | viability, T/C (second compound 0.1 µM, first compound 0.00316 µM): 110% | viability, T/C (second compound 0.1 µM, first compound 0.01 µM): 110% | viability, T/C [6]: 99.2% | viability, T/C [7]: 106% | viability, T/C (second compound 0.316 µM, first compound 0.000316 µM): 93% | viability, T/C (second compound 0.316 µM, first compound 0.001 µM): 105% | viability, T/C (second compound 0.316 µM, first compound 0.00316 µM): 106% | viability, T/C (second compound 0.316 µM, first compound 0.01 µM): 101% | viability, T/C [8]: 95.8% | viability, T/C [9]: 94.7% | viability, T/C (second compound 1 µM, first compound 0.000316 µM): 108% | viability, T/C (second compound 1 µM, first compound 0.001 µM): 113% | viability, T/C (second compound 1 µM, first compound 0.00316 µM): 103% | viability, T/C (second compound 1 µM, first compound 0.01 µM): 101% | viability, T/C [10]: 99% | viability, T/C [11]: 109% | viability, T/C (second compound 3.16 µM, first compound 0.000316 µM): 95.6% | viability, T/C (second compound 3.16 µM, first compound 0.001 µM): 102% | viability, T/C (second compound 3.16 µM, first compound 0.00316 µM): 90.3% | viability, T/C (second compound 3.16 µM, first compound 0.01 µM): 97.2% | viability, T/C [12]: 94.9% | viability, T/C [13]: 99.2% | viability, T/C (second compound 10 µM, first compound 0.000316 µM): 109% | viability, T/C (second compound 10 µM, first compound 0.001 µM): 110% | viability, T/C (second compound 10 µM, first compound 0.00316 µM): 109% | viability, T/C (second compound 10 µM, first compound 0.01 µM): 98.7% | viability, T/C [14]: 89.8% | viability, T/C [15]: 98.9%

O=C(C=Cn1cnc(-c2cc(C(F)(F)F)cc(C(F)(F)F)c2)n1)NNc1cnccn1 + Cc1cncc(-c2nc(NCCc3c[nH]c4ccccc34)c3ncn(C(C)C)c3n2)c1
IC50 [1]: > 3000 nM | IC50 [2]: > 3000 nM | IC50 [3]: > 3000 nM | IC50 [4]: > 3000 nM | IC50 [5]: < 9.49 nM | viability, T/C (second compound 0.1 µM, first compound 0.00949 µM): 99.6% | viability, T/C (second compound 0.1 µM, first compound 0.03 µM): 108% | viability, T/C (second compound 0.1 µM, first compound 0.0949 µM): 102% | viability, T/C (second compound 0.1 µM, first compound 0.3 µM): 89.3% | viability, T/C (second compound 0.1 µM, first compound 0.949 µM): 100% | viability, T/C (second compound 0.1 µM, first compound 3 µM): 68.2% | viability, T/C (second compound 0.316 µM, first compound 0.00949 µM): 98.5% | viability, T/C (second compound 0.316 µM, first compound 0.03 µM): 94.9% | viability, T/C (second compound 0.316 µM, first compound 0.0949 µM): 95.7% | viability, T/C (second compound 0.316 µM, first compound 0.3 µM): 106% | viability, T/C (second compound 0.316 µM, first compound 0.949 µM): 53.5% | viability, T/C (second compound 0.316 µM, first compound 3 µM): 54% | viability, T/C (second compound 1 µM, first compound 0.00949 µM): 88.5% | viability, T/C (second compound 1 µM, first compound 0.03 µM): 80.9% | viability, T/C (second compound 1 µM, first compound 0.0949 µM): 99.1% | viability, T/C (second compound 1 µM, first compound 0.3 µM): 96.3% | viability, T/C (second compound 1 µM, first compound 0.949 µM): 74% | viability, T/C (second compound 1 µM, first compound 3 µM): 58.3% | viability, T/C (second compound 3.16 µM, first compound 0.00949 µM): 76.3% | viability, T/C (second compound 3.16 µM, first compound 0.03 µM): 81.6% | viability, T/C (second compound 3.16 µM, first compound 0.0949 µM): 93.2% | viability, T/C (second compound 3.16 µM, first compound 0.3 µM): 87% | viability, T/C (second compound 3.16 µM, first compound 0.949 µM): 60.7% | viability, T/C (second compound 3.16 µM, first compound 3 µM): 59.6% | viability, T/C (second compound 10 µM, first compound 0.00949 µM): 21.2% | viability, T/C (second compound 10 µM, first compound 0.03 µM): 35.3% | viability, T/C (second compound 10 µM, first compound 0.0949 µM): 30.8% | viability, T/C (second compound 10 µM, first compound 0.3 µM): 22% | viability, T/C (second compound 10 µM, first compound 0.949 µM): 28.9% | viability, T/C (second compound 10 µM, first compound 3 µM): 25.1%

O=C(C=Cc1cccc(S(=O)(=O)Nc2ccccc2)c1)NO + CC(CO)NC(=O)c1cc(-c2ccc(Cl)cc2)nn(-c2cnn(C)c2)c1=O
IC50 [1]: 5440 nM | IC50 [2]: 2910 nM | IC50 [3]: 5150 nM | IC50 [4]: 3070 nM | IC50 [5]: 3520 nM | viability, T/C [6]: 98% | viability, T/C [7]: 108% | viability, T/C [16]: 111% | viability, T/C [17]: 115% | viability, T/C [18]: 89% | viability, T/C [19]: 6.36% | viability, T/C [8]: 99.5% | viability, T/C [9]: 93% | viability, T/C [20]: 98.2% | viability, T/C [21]: 96.6% | viability, T/C [22]: 46.3% | viability, T/C [23]: 4.58% | viability, T/C [10]: 97.6% | viability, T/C [11]: 94.3% | viability, T/C [24]: 110% | viability, T/C [25]: 112% | viability, T/C [26]: 84.1% | viability, T/C [27]: 3.72% | viability, T/C [12]: 94.4% | viability, T/C [13]: 87.6% | viability, T/C [28]: 117% | viability, T/C [29]: 108% | viability, T/C [30]: 48.7% | viability, T/C [31]: 2.7% | viability, T/C [14]: 93.9% | viability, T/C [15]: 73.9% | viability, T/C [32]: 90.9% | viability, T/C [33]: 119% | viability, T/C [34]: 54.9% | viability, T/C [35]: 3.22%

COc1cc(C2c3cc4c(cc3C(OC3OC5COC(C)OC5C(O)C3O)C3COC(=O)C23)OCO4)cc(OC)c1O (stereo unspecified) + CC(CO)NC(=O)c1cc(-c2ccc(Cl)cc2)nn(-c2cnn(C)c2)c1=O
IC50 [1]: > 10000 nM | IC50 [2]: > 10000 nM | IC50 [3]: > 10000 nM | IC50 [4]: > 10000 nM | IC50 [5]: > 10000 nM | viability, T/C [6]: 102% | viability, T/C [7]: 88.7% | viability, T/C [16]: 93.6% | viability, T/C [17]: 90.1% | viability, T/C [18]: 98.2% | viability, T/C [19]: 77.7% | viability, T/C [8]: 93.6% | viability, T/C [9]: 97.5% | viability, T/C [20]: 96.6% | viability, T/C [21]: 88.9% | viability, T/C [22]: 83.7% | viability, T/C [23]: 76.5% | viability, T/C [10]: 91% | viability, T/C [11]: 94% | viability, T/C [24]: 94.2% | viability, T/C [25]: 98.4% | viability, T/C [26]: 81.4% | viability, T/C [27]: 72.8% | viability, T/C [12]: 99.2% | viability, T/C [13]: 95.5% | viability, T/C [28]: 75.2% | viability, T/C [29]: 93.5% | viability, T/C [30]: 91.5% | viability, T/C [31]: 83.9% | viability, T/C [14]: 92.7% | viability, T/C [15]: 95.5% | viability, T/C [32]: 81.8% | viability, T/C [33]: 77.6% | viability, T/C [34]: 67.4% | viability, T/C [35]: 57.3%

CC(C)CC(NC(=O)C(Cc1ccccc1)NC(=O)c1cnccn1)B(O)O (stereo unspecified)
viability, T/C (compound 0.000949 µM): 104% and 97.6% and 89.6% | viability, T/C (compound 0.003 µM): 113% and 111% and 104% | viability, T/C (compound 0.00949 µM): 87.6% and 93.6% and 59.1% | viability, T/C (compound 0.03 µM): 3.07% and 10.3% and 0.16% | viability, T/C (compound 0.0949 µM): 0.13% and 0.15% and 0.11% | viability, T/C (compound 0.3 µM): 0.19% and 0.2% and 0.18% | IC50 (curve of compound): 15.8 nM and 17.3 nM and 11.3 nM

CC1COCCN1c1cc(-c2ccnn2C)c2ccnc(-c3ccn[nH]3)c2n1 (stereo unspecified)
viability, T/C (compound 0.00316 µM): 94.6% and 92.4% and 98.3% | viability, T/C (compound 0.01 µM): 88.1% and 91.6% and 75% | viability, T/C (compound 0.0316 µM): 91.3% and 96.4% and 105% | viability, T/C (compound 0.1 µM): 89.3% and 82.8% and 95.2% | viability, T/C (compound 0.316 µM): 75.3% and 74.5% and 69.8% | viability, T/C (compound 1 µM): 43% and 64% and 37.5% | IC50 (curve of compound): 784 nM and > 1000 nM and 642 nM
